# From patent US8569267B2, “Tetracyclic tetrahydrofuran derivatives containing cyclic amine side chain” (Janssen Pharmaceutica, NV, priority 2005, dated 2013)
# How the values were obtained:
# [1] = target: T1, human cloned 5-HT2A receptor, expressed in L929 cells (Homo sapiens, UniProt P28223); experiment: In vitro binding affinity for 5-HT2A receptor ([125I]R91150 radioligand binding); details: human cloned 5-HT2A receptor in L929 cells, [125I]R91150; read-out: 5-HT2A pIC50 (converted)
# T1 construct: expressed in transfected cells; host or cells: L929 cells
# Procedure: (§1) In Vitro Binding Affinity for 5-HT2A and 5-HT2C Receptors
# (§2) The interaction of the compounds of Formula (I) with 5-HT2A and 5-HT2C receptors was assessed in in vitro radioligand binding experiments. […] During the incubation, the radioligands bind to the receptor. When equilibrium of binding is reached, the receptor bound radioactivity is separated from the non-bound radioactivity, and the receptor bound activity is counted. The interaction of the test compounds with the receptors is assessed in competition binding experiments. Various concentrations of the test compound are added to the incubation mixture containing the tissue preparation and the radioligand. Binding of the radioligand will be inhibited by the test compound in proportion to its binding affinity and its concentration. The affinities of the compounds for the 5-HT2 receptors were measured by means of radioligand binding studies conducted with: (a) human cloned 5-HT2A receptor, expressed in L929 cells using [^125I]R91150 as radioligand and (b) human cloned 5-HT2C receptor, expressed in CHO cells using [^3H]mesulergine as radioligand.
# [2] = target: T2, human cloned 5-HT2C receptor, expressed in CHO cells (Homo sapiens, UniProt P28335); experiment: In vitro binding affinity for 5-HT2C receptor ([3H]mesulergine radioligand binding); details: human cloned 5-HT2C receptor, read-out: 5-HT2C pIC50 (converted)
# T2 construct: expressed in transfected cells; host or cells: CHO cells
# T2 sequence (P28335 33-458): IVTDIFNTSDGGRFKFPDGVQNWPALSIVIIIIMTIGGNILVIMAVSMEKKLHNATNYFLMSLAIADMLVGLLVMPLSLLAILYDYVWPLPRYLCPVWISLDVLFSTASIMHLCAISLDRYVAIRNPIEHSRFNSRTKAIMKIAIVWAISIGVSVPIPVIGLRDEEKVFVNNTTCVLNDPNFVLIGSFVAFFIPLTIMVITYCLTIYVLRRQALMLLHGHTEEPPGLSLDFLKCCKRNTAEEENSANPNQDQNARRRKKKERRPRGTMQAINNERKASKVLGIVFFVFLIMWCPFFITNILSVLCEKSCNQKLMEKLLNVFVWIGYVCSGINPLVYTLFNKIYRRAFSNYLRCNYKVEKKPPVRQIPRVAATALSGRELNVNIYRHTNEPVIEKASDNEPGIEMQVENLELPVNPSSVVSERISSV
# Procedure: as §1
# as §2, with “concentration.” for “concentration. The affinities of the compounds for the 5-HT2 receptors were measured by means of radioligand binding studies conducted with: (a) human cloned 5-HT2A receptor, expressed in L929 cells using [^125I]R91150 as radioligand and (b) human cloned 5-HT2C receptor, expressed in CHO cells using [^3H]mesulergine as radioligand.”
# [3] = target: T3, human Dopamine D2L receptor (Homo sapiens, UniProt P14416); experiment: In vitro binding affinity for human D2L receptor ([3H]Spiperone binding); details: human D2L receptor-transfected CHO cell membranes, read-out: D2L pIC50 (converted)
# T3 construct: expressed in transfected cells; host or cells: CHO cells
# Procedure: In Vitro Binding Affinity for Human D2L Receptor
# Frozen membranes of human Dopamine D2L receptor-transfected CHO cells were thawed, briefly homogenised using an Ultra-Turrax T25 homogeniser and diluted in Tris-HCl assay buffer containing NaCl, CaCl2, MgCl2, KCl (50, 120, 2, 1, and 5 mM respectively, adjusted to pH 7.7 with HCl) to an appropriate protein concentration optimised for specific and non-specific binding. Radioligand [^3H]Spiperone (NEN, specific activity ˜70 Ci/mmol) was diluted in assay buffer at a concentration of 2 nmol/L. Prepared radioligand (50 μl), along with 50 μl of either the 10% DMSO control, Butaclamol (10^−6 mol/l final concentration), or compound of interest, was then incubated (30 min, 37° C.) with 400 μl of the prepared membrane solution. Membrane-bound activity was filtered through a Packard Filtermate harvester onto GF/B Unifilterplates and washed with ice-cold Tris-HCl buffer (50 mM; pH 7.7; 6×0.5 ml). Filters were allowed to dry before adding scintillation fluid and counting in a Topcount scintillation counter. Percentage specific bound and competition binding curves were calculated using S-Plus software (Insightful).
# [4] = target: T4, NET (norepinephrine transporter) (Rattus norvegicus, UniProt Q63380); experiment: In vitro determination of NET reuptake inhibition ([3H]Nixosetine binding, rat brain cortex); details: rat brain cortex, read-out: NET pIC50 (converted)
# T4 construct: Cortex from rat brain was collected and homogenised; from tissue; host or cells: rat brain cortex
# Procedure: In Vitro Determination of NET Reuptake Inhibition
# Cortex from rat brain was collected and homogenised using an Ultra-Turrax T25 and a Dual homogeniser in ice-cold homogenising buffer containing Tris, NaCl and KCl (50 mM, 120 mM and 5 mM, respectively, pH 7.4) prior to dilution to an appropriate protein concentration optimised for specific and non-specific binding. […] Membrane-bound activity was detected by filtration through a Packard Filtermate harvester onto GF/B Unifilterplates, washed with ice-cold Tris-HCl buffer, containing NaCl and KCl (50 mM, 120 mM and 4 mM; pH 7.4; 6×0.5 ml). Filters were allowed to dry for 24 h before adding scintillation fluid. Scintillation fluid was allowed to saturate filters for 24 h before counting in a Topcount scintillation counter. Percentage specific bound and competition binding curves were calculated using S-Plus software (Insightful).
# T3 sequence (P14416 whole entry): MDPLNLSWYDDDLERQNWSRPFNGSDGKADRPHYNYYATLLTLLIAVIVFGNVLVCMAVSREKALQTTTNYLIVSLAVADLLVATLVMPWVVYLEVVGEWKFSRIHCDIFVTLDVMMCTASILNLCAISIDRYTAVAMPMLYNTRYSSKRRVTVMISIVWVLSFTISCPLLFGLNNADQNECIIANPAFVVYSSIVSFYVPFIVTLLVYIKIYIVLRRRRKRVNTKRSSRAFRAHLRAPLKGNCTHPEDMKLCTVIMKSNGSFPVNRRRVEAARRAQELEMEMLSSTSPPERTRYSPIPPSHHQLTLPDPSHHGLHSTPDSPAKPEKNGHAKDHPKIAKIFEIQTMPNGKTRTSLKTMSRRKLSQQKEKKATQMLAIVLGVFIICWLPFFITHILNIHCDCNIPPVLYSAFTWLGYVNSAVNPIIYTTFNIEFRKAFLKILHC
# T4 sequence (Q63380 1-617): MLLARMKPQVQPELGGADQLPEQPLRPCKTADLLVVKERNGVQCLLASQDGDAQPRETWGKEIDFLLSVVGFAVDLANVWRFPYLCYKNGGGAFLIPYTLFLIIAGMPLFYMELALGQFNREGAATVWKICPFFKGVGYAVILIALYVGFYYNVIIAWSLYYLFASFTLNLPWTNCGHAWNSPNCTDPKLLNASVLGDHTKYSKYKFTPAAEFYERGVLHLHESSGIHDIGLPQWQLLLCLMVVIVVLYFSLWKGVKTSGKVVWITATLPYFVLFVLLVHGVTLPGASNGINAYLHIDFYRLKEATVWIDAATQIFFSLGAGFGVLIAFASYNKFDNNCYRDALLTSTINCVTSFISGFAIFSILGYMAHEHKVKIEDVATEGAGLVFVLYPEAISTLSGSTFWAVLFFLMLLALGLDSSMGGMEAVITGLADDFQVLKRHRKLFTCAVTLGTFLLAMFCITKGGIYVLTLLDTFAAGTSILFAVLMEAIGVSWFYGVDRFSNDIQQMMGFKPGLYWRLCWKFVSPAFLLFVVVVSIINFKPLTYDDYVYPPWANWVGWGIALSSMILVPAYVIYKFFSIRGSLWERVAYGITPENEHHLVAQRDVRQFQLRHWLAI
# T1 sequence (P28223 whole entry): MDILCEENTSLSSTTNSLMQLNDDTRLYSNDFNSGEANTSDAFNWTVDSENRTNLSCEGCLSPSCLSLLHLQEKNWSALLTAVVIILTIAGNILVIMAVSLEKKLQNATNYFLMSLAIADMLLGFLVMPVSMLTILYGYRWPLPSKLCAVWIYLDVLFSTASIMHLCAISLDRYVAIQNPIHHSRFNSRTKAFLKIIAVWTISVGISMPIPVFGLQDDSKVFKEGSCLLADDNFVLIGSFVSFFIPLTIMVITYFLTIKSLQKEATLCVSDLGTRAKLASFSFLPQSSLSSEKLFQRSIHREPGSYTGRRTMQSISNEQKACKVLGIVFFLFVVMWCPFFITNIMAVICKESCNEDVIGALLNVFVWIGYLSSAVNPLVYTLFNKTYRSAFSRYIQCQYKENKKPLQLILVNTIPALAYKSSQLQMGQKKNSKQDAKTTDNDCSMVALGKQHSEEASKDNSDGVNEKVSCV
SMILES,IC50 [1] [nM],IC50 [2] [nM],IC50 [3] [nM],IC50 [4] [nM]
O=C(OC1CCN(CC2CC3c4ccccc4Cc4ccc(F)cc4C3O2)C1)c1ccc(F)cc1F (mixture of isomers) [Compound 17],5.75,4.68,6.03,1740
CCOC(=O)CNC(=O)N1CCN(CC2CC3c4ccccc4Cc4ccc(F)cc4C3O2)CC1 (stereo not drawn) [Compound 92],2.57,15.5,43.7,> 10000
O=C(NC1CCCCC1)OCC1CCN(CC2CC3c4ccccc4Cc4ccc(F)cc4C3O2)C1 (mixture of isomers) [Compound 21],1.91,2.88,7.24,1450
COc1cc(OC)c(CNC(=O)C2CCN(CC3CC4c5ccccc5Cc5ccc(F)cc5C4O3)CC2)c(OC)c1 (stereo not drawn) [Compound 186],2.4,2.34,7.08,3550
O=C(NC1CCN(CC2CC3c4ccccc4Cc4ccc(F)cc4C3O2)CC1)c1ccc(Cl)cc1Cl (stereo not drawn) [Compound 230],2.95,12.6,6.03,5750
O=C(OCc1ccccc1)N1CCN(CC2CC3c4ccccc4Cc4ccc(F)cc4C3O2)CC1 (stereo not drawn) [Compound 85],66.1,63.1,–,> 10000
CC(C)(C)NC(=O)C1CCN(CC2CC3c4ccccc4Cc4ccc(F)cc4C3O2)CC1 (stereo not drawn) [Compound 173],0.724,5.75,13.2,6460
CCCCNC(=O)N1CCN(CC2CC3c4ccccc4Cc4ccc(F)cc4C3O2)CC1 (stereo not drawn) [Compound 89],2.82,6.61,38.9,> 10000
O=C(OC1CCN(CC2CC3c4ccccc4Cc4ccc(F)cc4C3O2)C1)C1CCCC1 (mixture of isomers) [Compound 14],4.17,3.31,3.89,1230
OC1(c2ccc(F)cc2)CCN(CC2CC3c4ccccc4Cc4ccc(F)cc4C3O2)C1 (mixture of isomers) [Compound 41],1.82,2.29,4.27,7080
Fc1ccc2c(c1)[C@@H]1O[C@@H](CN3CCC4(CC3)OCCO4)C[C@@H]1c1ccccc1C2 [Compound 278],1.62,9.77,2.29,> 10000
CCC(C)(C)NC(=O)N1CCN(CC2CC3c4ccccc4Cc4ccc(F)cc4C3O2)CC1 (stereo not drawn) [Compound 90],1.62,20,30.9,4470
COC(CNC(=O)N1CCN(CC2CC3c4ccccc4Cc4ccc(F)cc4C3O2)CC1)OC (stereo not drawn) [Compound 91],1.15,14.8,37.2,4070
O=C(Nc1ccccc1)OCC1CCN(CC2CC3c4ccccc4Cc4ccc(F)cc4C3O2)C1 (mixture of isomers) [Compound 22],3.09,3.72,5.01,2510
COCC1(O)CCN(C[C@H]2C[C@@H]3c4ccccc4Cc4ccc(F)cc4[C@@H]3O2)CC1 [Compound 272],1.23,0.741,2.14,724
CCCCCC(=Cc1ccccc1)CN1CCN(CC2CC3c4ccccc4Cc4ccc(F)cc4C3O2)CC1 (stereo not drawn) [Compound 50],34.7,105,70.8,2140

SMILES,IC50 [1] [nM],IC50 [2] [nM],IC50 [3] [nM],IC50 [4] [nM]
Cc1ccc(S(=O)(=O)N2CCN(CC3CC4c5ccccc5Cc5ccc(F)cc5C4O3)CC2)cc1 (stereo not drawn) [Compound 107],83.2,331,81.3,> 10000
Fc1ccc2c(c1)C1OC(CN3CCN(c4ccc(C(F)(F)F)cn4)CC3)CC1c1ccccc1C2 (stereo not drawn) [Compound 120],35.5,87.1,363,> 10000
O=C(C1CCN(CC2CC3c4ccccc4Cc4ccc(F)cc4C3O2)CC1)N1CCN(c2cccc(Cl)c2)CC1 (stereo not drawn) [Compound 202],3.47,8.13,24,1620
O=C(NC1CCCCCC1)C1CCN(CC2CC3c4ccccc4Cc4ccc(F)cc4C3O2)CC1 (stereo not drawn) [Compound 193],1.41,2.63,15.5,5250
O=C(c1cccs1)N1CCN(CC2CC3c4ccccc4Cc4ccc(F)cc4C3O2)CC1 (stereo not drawn) [Compound 81],0.724,5.01,35.5,> 10000
N#CCC1CCN(CC2CC3c4ccccc4Cc4ccc(F)cc4C3O2)CC1 (stereo not drawn) [Compound 168],3.89,9.33,2.82,> 10000
COc1cccc(N2CCN(CC3CC4c5ccccc5Cc5ccc(F)cc5C4O3)CC2)n1 (stereo not drawn) [Compound 118],4.9,7.59,26.3,2820
OCC1CCCCN1CC1CC2c3ccccc3Cc3ccc(F)cc3C2O1 (mixture of isomers) [Compound 146],16.6,11.5,81.3,> 10000
Fc1ccc(OC2CCN(CC3CC4c5ccccc5Cc5ccc(F)cc5C4O3)C2)cc1 (mixture of isomers) [Compound 36],12.3,4.68,21.9,4070
OC(COc1ccc(Cl)cc1)CN1CCN(C[C@H]2C[C@@H]3c4ccccc4Cc4ccc(F)cc4[C@@H]3O2)CC1 (stereo partly drawn) [Compound 56],6.03,10.2,26.3,5620
CCNC(=O)N1CCN(C[C@H]2C[C@@H]3c4ccccc4Cc4ccc(F)cc4[C@@H]3O2)CC1 [Compound 86],0.832,3.02,55,7080
O=C(Nc1ccc(F)c(Cl)c1)C1CCN(CC2CC3c4ccccc4Cc4ccc(F)cc4C3O2)CC1 (stereo not drawn) [Compound 190],< 10,2.75,47.9,> 10000
O=C(NCCN1CCOCC1)C1CCN(CC2CC3c4ccccc4Cc4ccc(F)cc4C3O2)CC1 (stereo not drawn) [Compound 181],4.79,7.59,57.5,> 10000
Fc1ccc(OCC2CCN(CC3CC4c5ccccc5Cc5ccc(F)cc5C4O3)C2)cc1 (stereo not drawn) [Compound 26],5.13,5.62,3.63,> 10000
O=C(NC(=S)N1CCN(CC2CC3c4ccccc4Cc4ccc(F)cc4C3O2)CC1)c1ccccc1 (stereo not drawn) [Compound 111],3.89,9.77,27.5,3090
